The nature of data set [1]: Hydrophilic-lipophilic balance (HLB) value. The class given is physicochemical. Particulars: calculated as twenty times molecular weight of hydrophilic portion divided by total molecular weight.
Another data set has as its system rabbits. Description: Cytotoxicity by ocular irritation study (ISO 10993-10). The settings on record: 0.035% in PBS, ocular irritation study in rabbits (ISO 10993-10). The class given is in vivo. The text has this:
An advantage of the surfactants used herein is that they are non-cytotoxic at concentrations effective at reducing surface concentration of silicon, and thus may be left in the final packaged contact lens. In contrast, other methods for reducing surface concentration of silicone of silicone hydrogel contact lenses employ toxic compounds that must be extracted from the contact lens prior to final packaging (see e.g. US Pat. Appin. Publ. No. 2014/0275434). Thus, the prior art method requires additional processing steps in order to provide an ophthalmically-acceptable contact lens, which add to manufacturing costs. Further, there is a desire to minimize the use of hazardous chemicals in manufacturing sites, which is another advantage of the present invention compared to the prior art. In specific examples, the concentration of the surfactant in the packaging solution prior to contact with the contact lens is from about 0.01 wt. % or 0.02 wt. %, up to about 0.05 wt. %, 0.075 wt. %, or 0.1 wt. %. Throughout this disclosure, when a series of lower limit ranges and a series of upper limit ranges are provided, all combinations of the provided ranges are contemplated as if each combination were specifically listed. […]
Because of the low CoF values obtained for both lenses, tyloxapol and RLM-100 were evaluated further for use as a possible packaging solution additive.

On to tyloxapol, for which, in data set [1], the HLB value result is “about 13”. Also, the cytotoxicity result with rabbits was “non-cytotoxic”.
